Earlier results on 1 compound are cited in patent US20220202698A1, “EXTENDED RELEASE PHARMACEUTICAL COMPOSITIONS OF RIOCIGUAT” (Jubilant Pharma Holdings Inc., priority 2020, published 2022).

The structures appear in SMILES notation.

For data set [1] the following is noted: BCS classification.
For data set [2] the following is noted: human, in vivo.

For the compound `COC(=O)N(C)c1c(N)nc(-c2nn(Cc3ccccc3F)c3ncccc23)nc1N` [Riociguat, methyl 4,6-diamino-2-[1-(2-fluorobenzyl)-1H-pyrazolo[3,4-b]pyridin-3-yl]-5-pyrimidinyl(methyl)carbamate], in data set [1], the Solubility result is on record as “low solubility”. Moreover, the Elimination half-life entry in data set [2] is reported as “about 12 hours”.
